Patent US11998556B2, “Methods of treating parkinson's disease and/or lewy body disease or disorder(s)” (Athira Pharma, Inc., priority 2021, dated 2024)
Square brackets hold non-standard residues; d marks the D form. Peptide text beside a SMILES is read from it. * marks the point of attachment. pY = N[CH](Cc1ccc(OP(=O)(O)O)cc1)C(=O)O; Hexanoyl = CCCCCC(=O)*; Ahx = NCCCCCC(=O)O

What was measured:
[1] = Clinical studies of ATH-1017: safety and tolerability of single and multiple SC administration; format: in vivo, human
[2] = Nonclinical studies (hepatotoxicity risk); format: in vivo
[3] = Conversion of prodrug ATH-1017 to active drug ATH-1001 in the plasma after SC injection; format: in vivo
Excerpt: ATH-1017 is an experimental treatment for Lewy body disease or disorder(s) (LBD), including Parkinson's disease dementia (PDD) and/or dementia with Lewy bodies (DLB), formulated as a sterile solution for subcutaneous (SC) injection. […] ATH-1017 was developed as a water-soluble prodrug of ATH-1001 to allow SC dosing in aqueous vehicles. The active drug ATH-1001 acts as an agonist of the hepatocyte growth factor (HGF) receptor and its tyrosine kinase, MET in the brain. The HGF/MET system presents a new therapeutic target to treat neurodegeneration and restore cognitive, behavioral, functional and motor capacities in LBD such as PDD.

[4] = Phase 2 randomized, double-blind, placebo-controlled study in subjects with PDD inclusive of probable DLB; format: in vivo, human; settings: 40 mg/day or 70 mg/day SC OD, 26 weeks
Description: The study is conducted at a total of approximately 15 centers in the USA and optionally Canada. Subjects and their caregivers are required to sign an informed consent form (ICF) and are evaluated against the inclusion/exclusion criteria during a screening period; all eligible subjects will have the option to be tested for glucocerebrosidase (GBA) genotype. Subjects who meet all inclusion/exclusion criteria will undergo baseline ERP P300 assessments at 2 separate baseline visits. At the first baseline assessment (Visit 2a, Pre-baseline, Day-10 to Day-3), ERP P300 is uploaded for quality check immediately after completion of the visit. […] At this Baseline visit (Visit 2b), subjects undergo pre-dose baseline and post-dose ERP P300. […] The first SC injection of study drug is performed on site under supervision. The subject should withhold study drug administration on the day of subsequent clinic visits; study drug administration is done on site under supervision of site staff at these visits. […] During the double-blind treatment period, clinic visits take place on Day 1 and thereafter at Weeks 2, 6, 12, 16, 20, and 26, with a safety follow-up visit scheduled 4 weeks after completion of the double-blind period at Week 30. On Day 1, after completion of the first dose, subjects remain on-site 2 hours for post-treatment clinical observation. […]

## CCCCCC(=O)NC(Cc1ccc(OP(=O)(O)O)cc1)C(=O)NC(C(=O)NCCCCCC(N)=O)C(C)CC (stereo not shown) [ATH-1017] (Hexanoyl-[pY]-Ile-[Ahx]-NH2; configuration not given here)
[1]; 40 mg SC, OD, over 9 consecutive days, AD subjects
  safety and tolerability: safe and well tolerated
[1]; SC injection, human clinical studies, resolved without specific therapy
  injection site reactions (pain, pruritus, erythema): severity: mild in nature
[1]; human studies
  hepatotoxicity: has not been observed
[1]; humans, to date
  CNS-specific adverse events: no CNS-specific adverse events have been observed
[1]; multiple administration of 20, 40, 60 and 80 mg SC, OD, over 9 consecutive days, healthy elderly subjects
  safety and tolerability: safe and well tolerated
[1]; single SC administration of 2, 6, 20, 40, 60 and 90 mg, healthy young subjects
  safety and tolerability: safe and well tolerated
[2]
  hepatotoxicity risk: potential risk for hepatotoxicity identified
[3]
  conversion of prodrug to active drug ATH-1001: rapidly converted
[4]
  safety and tolerability: acceptable safety and tolerability
[4]; versus placebo
  primary, secondary or exploratory endpoints (GST, ADAS-Cog13, ERP P300 latency etc.): achieves one or more of the primary, secondary, or exploratory endpoints
